Test results: article PMC10916382, “Repurposing screen identifies novel candidates for broad-spectrum coronavirus antivirals and druggable host targets” (Antimicrobial Agents and Chemotherapy, 2024)
Where a name gives a salt, the structure may show the parent alone. Read-outs that look alike come from different tables or passages of the source.

Columns and labels:
HCoV-229E = assay: microbe, parasite or virus in culture; format: cell-based, Homo sapiens sapiens
Huh-7.5/F-Luc cells = conditions: for CC50 (µM): maximum tested dose 5 µM
SARS-CoV-2 = conditions: Calu-3 cells
[1] = HCoV 229E infection, dose series, max. dose 5 µM, read-out: IC50

Row | Compound | IC50 (HCoV-229E; [1]) [µM] | CC50 (µM) (Huh-7.5/F-Luc cells; Huh-7.5 cells, dose series) | % cell viability at max. dose [5 µM] (Huh-7.5/F-Luc cells; at max. dose 5 µM) [%] | Anti-SARS-CoV-2 screening on Calu-3 cells: viability [% of control] (SARS-CoV-2) | Anti-SARS-CoV-2 screening on Calu-3 cells: intracellular SARS-CoV-2 infection measured via immunofluorescence imaging [% of control] (SARS-CoV-2) | IC50 (HCoV-229E; read-out: IC50) [µM] | antiviral activity against HCoV-229E (HCoV-229E; Huh-7.5/F-Luc cells) | IC50 (HCoV-229E; HCoV-229E/R-Luc on Huh-7.5/F-Luc cells, dose series, max. dose 5 µM, read-out: IC50 (µM), HCoV 229E) [µM] | % cell viability at max. dose [5 µM] (Huh-7.5/F-Luc cells; Huh-7.5/F-Luc cells, 5 µM) [%] | CC50 (µM) (Huh-7.5/F-Luc cells; Huh-7.5/F-Luc cells) | IC50 (HCoV-229E; Human coronavirus 229E, Huh7.5) [µM]
1 | COc1ccc2cc(S(=O)(=O)N[C@H](CC(=O)N[C@H](Cc3ccc(CN4[C@H](C)CCC[C@@H]4C)cc3)C(=O)N(C)C(C)C)c3ccc4c(c3)OCO4)ccc2c1 [SSR240612] | 0.53 | greater than maximum tested dose | 127.22 | 108.83 % of control | 125.70 % of control |  |  |  |  |  | 
2 | OCCNCCOc1ccc(/C(=C(\c2ccccc2)C(F)(F)F)c2ccccc2)cc1 [PANOMIFENE] |  | greater than maximum tested dose | 141.70 | 98.59 % of control | 95.32 % of control | 0.89 |  |  |  |  | 
3 | CC[C@H](NC(=O)[C@H](CS(=O)(=O)CC1CC1)N[C@@H](c1ccc(F)cc1)C(F)(F)F)C(=O)C(=O)NC1CC1 [VBY-825, reference compound] | 0.21 | greater than maximum tested dose | 147.45 | 100.68 % of control | 101.42 % of control |  | antiviral activity |  |  |  | 
4 | CN1CC[C@H](c2c(O)cc(O)c3c(=O)cc(-c4ccccc4Cl)oc23)[C@H](O)C1 [Flavopiridol (Alvocidib)] | 0.14 | greater than maximum tested dose | 115.14 | 90.90 % of control | 15.82 % of control |  |  |  |  |  | 
5 | CC(C)(O)c1ccc2c(c1)/C(=C/CCN1CC[C@](O)(c3ccc(Cl)cc3)C(C)(C)C1)c1cccnc1CO2 [MLN-3897] | 0.96 | greater than maximum tested dose | 122.09 | 106.59 % of control | 101.50 % of control |  |  |  |  |  | 
6 | O=S(=O)(Nc1ccc(CCNC[C@H](O)c2cccnc2)cc1)c1ccc(-c2nc(-c3ccc(C(F)(F)F)cc3)cs2)cc1 [L 796568] | 0.77 | greater than maximum tested dose | 149.63 | 84.86 % of control | 111.47 % of control |  |  |  |  |  | 
7 | COc1cc2c(cc1N1C[C@@H](C)N[C@@H](C)C1)N(C(=O)c1ccc(-c3ccc(-c4noc(C)n4)cc3C)cc1)CC2 [SB-616234-A] | 0.57 | greater than maximum tested dose | 143.19 | 119.80 % of control | 117.99 % of control |  |  |  |  |  | 
8 | Nc1ncccc1-c1nc2ccc(-c3ccccc3)nc2n1-c1ccc(C2(N)CCC2)cc1 [ARQ-092 (Miransertib mesylate)] |  | greater than maximum tested dose | 98.72 | 27.64 % of control | 126.86 % of control |  |  |  |  |  | 
9 | Oc1cccc[c]1[Hg][Cl] [RFM-006-841-7] |  |  |  | 123.69 % of control | 99.62 % of control |  |  | 1.35 | 91.70 | greater than maximum tested dose | 
10 | Cc1ccc(Sc2ccccc2C2CCNCC2)cc1 [LU-AA24530] | 0.68 | greater than maximum tested dose | 150.91 | 106.74 % of control | 100.77 % of control |  |  |  |  |  | 
11 | CC(C)c1ccc(C(=O)c2cccs2)c(SCCCCCCCCN(C)C)n1 [Y 29794] | 0.33 | greater than maximum tested dose | 121.37 | 88.61 % of control | 99.31 % of control |  |  |  |  |  | 
12 | COC(=O)C1=C(C)NC(C)=C(C(=O)OCCCCNC[C@H](O)COc2ccccc2)C1c1cccc([N+](=O)[O-])c1 (some centres unmarked) [YM 430] | 0.82 | greater than maximum tested dose | 137.51 | 101.27 % of control | 99.21 % of control |  |  |  |  |  | 
13 | OC(CNCC(O)C1CCc2cc(F)ccc2O1)C1CCc2cc(F)ccc2O1 (centres unmarked) [Nebivolol HCl] |  | greater than maximum tested dose |  |  |  |  |  |  |  |  | 1
14 | COc1cc(C(C)=O)ccc1OCCCN1CCC(C(O)(c2ccc(F)cc2)c2ccc(F)cc2)CC1 [AHR-5333] | 1 | greater than maximum tested dose | 162.61 | 103.33 % of control | 98.57 % of control |  |  |  |  |  | 
15 | CC(C)c1ccc2c(c1)C(N1CCN(CCO)CC1)Cc1ccc(F)cc1S2 (centres unmarked) [isofloxythepin] | 0.79 | greater than maximum tested dose | 141.51 | 97.70 % of control | 105.07 % of control |  |  |  |  |  | 
16 | CN(C)CCCN1c2ccccc2Sc2ccc(Cl)cc21 [Chlorpromazine69-09-0] | 0.77 | greater than maximum tested dose | 144.29 | 118.10 % of control | 120.36 % of control |  |  |  |  |  | 
17 | CN(C)CCCOC(CCCCc1ccccc1)c1ccccc1 (centres unmarked) [SM-3163] | 0.77 | greater than maximum tested dose | 166.12 | 103.94 % of control | 105.69 % of control |  |  |  |  |  | 
18 | CC/C(=C(\c1ccc(O)cc1)c1ccc(OCCNC)cc1)c1ccccc1.Cl [Endoxifen (hydrochloride)] | 0.56 | greater than maximum tested dose | 148.79 | 90.44 % of control | 114.51 % of control |  |  |  |  |  | 
19 | COc1ccc2cc1Oc1ccc(cc1)C[C@H]1c3c(cc4c(c3Oc3cc5c(cc3OC)CCN(C)[C@@H]5C2)OCO4)CCN1C [Cepharanthine] |  | greater than maximum tested dose |  |  |  |  |  |  |  |  | 0.47
